Assay results reported in paper PMC3064985 (Bioorganic & medicinal chemistry, 2010).

What was measured:
[1] = test system: Poly d(A-T)n; assay: Thermal melting; format: binding; settings: for Increase in ΔTm on replacing one furan ring with thiophene: compared with bifuran 1c
[2] = test system: T. b. rhodesiense STIB900; assay: STIB900 acute mouse model of trypanosomiasis; format: in vivo; settings: 5 mg/kg ip, 4 consecutive days
[3] = test system: cultured L6 rat myoblast cells; assay: Cytotoxicity, Alamar Blue assay; format: cell-based; settings: read-out: Cytotoxicity IC50
[4] = test system: Plasmodium falciparum K1; assay: In vitro activity against P. falciparum; format: cell-based; settings: read-out: P. falciparum IC50; strain K1; average of duplicate determination

Molecule | Increase in ΔTm on replacing one furan ring with thiophene [1] | Survival (average days of survival) [2] [days] | further results
Cl.N=C(N)c1ccc(-c2ccc(-c3ccc(C(=N)N)s3)o2)cc1 [Compound 1d, 5-[5-(4-Amidinophenyl)-furan-2-yl]-thiophene-2-carboxamidine hydrochloride] | approximately 5 °C | – | –
Cl.N=C(N)c1ccc(-c2ccc(-c3ccc(C(=N)N)o3)s2)cc1 [Compound 1f, 5-[5-(4-Amidinophenyl)-thiophen-2-yl]-furan-2-carboxamidine hydrochloride] | approximately 5 °C | – | –
Cl.N=C(N)c1ccc(-c2ccc(-c3ccc(C(=N)N)s3)s2)cc1 [Compound 1e, 5′-(4-Amidinophenyl)-2,2′-bithiophene-5-carboxamidine hydrochloride] | – | 26.25 | –
6-(5′-Amidino-2,2′-bifuran-5-yl)-nicotinamidine acetate [Compound 1h] | – | 25.5 | ΔTm, increase in thermal melting of Poly d(A-T)n ([1]; ratio 0.3 mol compound per mole DNA, CAC 10 buffer pH 7.0): 6.0 °C; IC50 [3]: 26.9 µM; IC50 [4]: 0.0064 µM; Cures (mice that survive and are parasite free for 60 days) ([2]; groups of four mice): 0/4
